Reference: US11129823B2 (Aldeyra Therapeutics, Inc., priority 2016, dated 2021)

Assays:
[1] = tested on: patients with active noninfectious anterior uveitis; test: Phase II randomized, investigator-masked, comparator-controlled trial of NS2 eye drops in anterior uveitis; type: in vivo, human
Source text: Group 2 patients will alternate doses of NS2 and Pred Forte®. All patients will be instructed to maintain at least one hour between any two doses. Patients will be followed for up to 8 weeks and monitored for safety and efficacy at six scheduled visits. Efficacy will be assessed by standard ophthalmic examination procedures and response to treatment will be graded according to established uveitis scales. […] Rescue therapy will consist of therapy dosed at the clinical discretion of the treating physician. Rescued patients will receive a follow-up assessment one week after rescue, and then they will be discontinued from the study. Study drug will be self-administered by the patient (or caregiver). Subjects will be instructed to administer study drug per the treatment arm they are assigned to. Subjects randomized to NS2 or Pred Forte® will begin with one drop in the study eye four (4) times per day. Subjects randomized to the NS2 and Pred Forte® group will be instructed to administer one drop of NS2 four (4) times per day alternating with Pred Forte® two (2) times per day. Pred Forte® will be tapered weekly and continued for up to five (5) weeks as described in Table 1. Based the pre-clinical activity of NS2 in diminishing TH1 cytokines as well as ocular inflammation in a pre-clinical model of uveitis, a Phase II trial of topical ocular NS2 was initiated in patients with active noninfectious anterior uveitis, a rare but serious autoimmune-like ocular disease that can lead to blindness. The design of the anterior uveitis Phase II trial was a randomized, parallel group, investigator-masked, comparator-controlled trial to evaluate the safety and efficacy of NS2 ophthalmic solution in patients with anterior uveitis. The trial assessed signs and symptoms of anterior uveitis including anterior chamber cell counts, which are utilized as the primary endpoints in registration studies of anterior uveitis. The study was conducted at 15 clinical sites in the US. […] Pred Forte® was dosed two (2) times daily and then tapered over a 4 week period. […] Prior to un-masking, one subject in the Pred Forte® group was removed from the ITT population for a history of ovarian cancer within the past 5 years, which met exclusion criteria. […] Patients were followed for 8 weeks and monitored for safety and efficacy at six scheduled visits. Efficacy was assessed by standard ophthalmic examination procedures including slit lamp examination and response to treatment was graded according to established uveitis scales. The visit schedule included a screening randomization visit, a day 4 telephone follow-up visit, and clinic visits at week 1, 2, 4, and 8. […] Rescued patients were followed through the week 8 end of study visit.

[2] = tested on: patients with allergic conjunctivitis; test: Phase II clinical trial of topical ocular NS2 in allergic conjunctivitis; type: in vivo, human; settings: after a single eye drop
Source text: Based on the proposed role of aldehydes in mediating inflammation, in addition to the pre-clinical activity of NS2 in reducing IL-5 and other TH2 cytokines, a Phase II clinical trial of a single dose of topical ocular NS2 was initiated in patients with allergic conjunctivitis, and positive results were obtained from that trial in February 2016. The trial design and data from that trial have been reported previously. […] The positive clinical effects of NS2 continued […].

[3] = 9-month dog study with QID (OU) topical dosing; type: in vivo
Protocol: (§1) The proposed proof of concept study will use the 0.5% dose level of NS2. This dose was selected based on the Phase 1 clinical study results under IND 104,497 and a 9-month dog study with QID (OU) dosing at 0.5%, 0.25%, and 0.1% (w/v). […] Based on the safety profile of the 9-month dog study where 0.5% NS2 was administered QID topically and the 7 day Phase 1 clinical study, a maximum treatment duration of 6-weeks was proposed.

in vivo = settings: primates
Protocol: To allow for continuous exposure, NS2 0.5% will be administered at a dose of 4 times per day in Group 1 and Group 2. Aldehydes at concentrations of 10 μM are cytotoxic in cell culture (Maeda et al., 2012, Nat Chem Biol. 8(2):170-8). […] In primates, a single dose of 0.5% NS2 results in anterior eye tissue concentrations that range from 17.6 μM just after dosing to 1.2 μM three hours post dosing.

ocular inflammation = settings: cited from earlier work
[4] = Phase 1 clinical study, 7 day QID topical dosing; type: in vivo, human
Protocol: as §1

[5] = tested on: TH1 and TH2 inflammatory cytokines, IL-10; settings: systemically administered; cited from earlier work

CC(C)(O)c1nc2ccc(Cl)cc2cc1N [NS2]
frequency of ocular stinging and burning ([1]; NS2 treated groups): increased frequency
effects on anterior chamber cell counts ([1]; anterior uveitis population): clinically meaningful effects
tolerability ([1]; anterior uveitis population, 0.5% drops 4 times daily, 6 weeks): generally well tolerated
rescue medication required, proportion of patients ([1]; during the study): 20%
safety concerns (ocular exam scores, intra-ocular pressure, corneal thickness, visual acuity) ([1]; during the study): no safety concerns
subjects withdrawn for an adverse event of stinging ([1]; in vivo): One
ACC improvement of at least 1 grade, proportion of patients with successful response ([1]; time point not given): 53%
reducing inflammatory cell count in the anterior chamber of the eye versus standard of care corticosteroid ([1]; topical ocular): statistically indistinguishable from standard of care corticosteroid administration
grade 0 ACC (anterior chamber cell count) treatment response, proportion of patients ([1]; week 2 study visit, mITT population): 33%
sustained grade 0 ACC treatment response, proportion of patients ([1]; week 8 study visit, mITT population): 40%
ocular itching and tearing [2]: significantly reduced
macroscopic or microscopic evaluations ([3]; 9-month, QID (OU) at 0.5%, 0.25%, 0.1% (w/v)): no abnormal findings
tolerability ([3]; dog, in vivo): well tolerated
anterior eye tissue concentration (in vivo): 17.6 µM
concentration at 3 h (in vivo): 1200 nM
activity versus topical ocular corticosteroid administration (ocular inflammation): compared favorably
tolerability ([4]; 0.5% NS2 group, 7 day QID dosing): well tolerated
concentration at 7 day ([4]; human, plasma, topical, 0.5% NS2, 7 day QID dosing, detection limit, each subject, read-out: plasma levels of NS2): < 5 ng/mL
IL-10 (anti-inflammatory cytokine) [5]: up-regulating
levels of TH1 and TH2 inflammatory cytokines [5]: significantly lowered
